Patent publication US9695155B2, “Herbicidal substituted pyrimidinyloxy benzene compounds” (E. I. DU PONT DE NEMOURS AND COMPANY, priority 2013, dated 2017)

Experiments:
pigweed [1] = experiment: Test A preemergence; assay type: in vivo, Amaranthus retroflexus
Summary of the method: (§1)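 Visual injury scored 0–100 (100 = complete control) against untreated controls about 10 days after treatment in a greenhouse. Test chemicals, formulated with surfactant in non-phytotoxic solvent, were sprayed on soil preemergence or on 2-10 cm, one- to two-leaf plants postemergence.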

giant foxtail [2] = experiment: Test A postemergence; assay type: in vivo, Setaria faberii; conditions: 0 to 100 scale where 0 is no effect and 100 is complete control
Summary of the method: as §1

pigweed [3] = experiment: Test A postemergence; assay type: in vivo, Amaranthus retroflexus; conditions: 0 to 100 scale where 0 is no effect and 100 is complete control
Summary of the method: as §1

blackgrass = experiment: Test C preemergence; assay type: in vivo, Alopecurus myosuroides; conditions: for Blackgrass plant response rating: preemergence
Summary of the method: (§2)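 Injury was assessed visually against controls 13 to 15 days after application, with 0 meaning no effect and 100 full control; missing entries are shown as a dash. Preemergence sprays hit seeded loam–sand soil, postemergence sprays hit 1- to 4-leaf plants.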

giant foxtail [4] = experiment: Test C preemergence; assay type: in vivo, Setaria faberii; conditions: for Foxtail, Giant plant response rating: preemergence
Summary of the method: as §2

johnsongrass [5] = experiment: Test C preemergence; assay type: in vivo, Sorghum halepense; conditions: for Johnsongrass plant response rating: preemergence
Summary of the method: as §2

ragweed = experiment: Test C preemergence; assay type: in vivo, Ambrosia elatior; conditions: for Ragweed plant response rating: preemergence
Summary of the method: as §2

corn = experiment: Test C postemergence; assay type: in vivo, Zea mays
Summary of the method: as §2

large (Lg) crabgrass [6] = experiment: Test C postemergence; assay type: in vivo, Digitaria sanguinalis
Summary of the method: as §2

johnsongrass [7] = experiment: Test C postemergence; assay type: in vivo, Sorghum halepense
Summary of the method: as §2

oilseed rape = experiment: Test C postemergence; assay type: in vivo, Brassica napus
Summary of the method: as §2

waterhemp = experiment: Test C postemergence; assay type: in vivo, Amaranthus rudis
Summary of the method: as §2

velvetleaf = experiment: Test C postemergence; assay type: in vivo, Abutilon theophrasti
Summary of the method: as §2

large (Lg) crabgrass [8] = experiment: Test A preemergence; assay type: in vivo, Digitaria sanguinalis; conditions: Digitaria sanguinalis, pre-emergence, 240 h, 0 to 100 scale where 0 is no effect and 100 is complete control
Summary of the method: as §1

large (Lg) crabgrass [9] = experiment: Test A postemergence; assay type: in vivo, Digitaria sanguinalis; conditions: 0 to 100 scale where 0 is no effect and 100 is complete control
Summary of the method: as §1

[10] = 16 g ai/ha, scale 0 to 100 (0 no effect, 100 complete control)
[11] = 62 g ai/ha, scale 0 (no effect) to 100 (complete control)
[12] = 125 g ai/ha, scale 0 (no effect) to 100 (complete control)
[13] = Preemergence, 31 g ai/ha, scale 0 to 100, 0 no effect, 100 complete control
[14] = 16 g ai/ha, postemergence, visual rating, scale 0 to 100 (0 no effect, 100 complete control), 13 to 15 days
[15] = Postemergence, 31 g ai/ha, scale 0 to 100 (0 no effect, 100 complete control), 13 to 15 days
[16] = Postemergence, 62 g ai/ha, scale 0 to 100 (0 no effect, 100 complete control)
[17] = 31 g ai/ha, postemergence, visual rating, scale 0 to 100 (0 no effect, 100 complete control), 13 to 15 days

N#Cc1cccc(Oc2ncc(F)cn2)c1-n1cc(I)cn1 [Compound 86]
Plant response rating, Pigweed (pigweed [1]; 125 g ai/ha, 0 to 100 scale where 0 is no effect and 100 is complete control): 100 | Pigweed plant response rating (pigweed [1]; 500 g ai/ha, 0 to 100 scale, 0 no effect, 100 complete control, approx. 10 days): 100 | Plant response rating, Foxtail, Giant (giant foxtail [2]; 125 g ai/ha): 90 | Plant response rating, Foxtail, Giant (giant foxtail [2]; 500 g ai/ha): 100 | Plant response rating, Pigweed (pigweed [3]; 125 g ai/ha): 100 | Plant response rating, Pigweed (pigweed [3]; 500 g ai/ha): 100 | Blackgrass plant response rating (blackgrass; [10]): 0 | Blackgrass plant response rating (blackgrass; [11]): 90 | Blackgrass plant response rating (blackgrass; [12]): 98 | Plant response rating, Blackgrass (blackgrass; [13]): 20 | Foxtail, Giant plant response rating (giant foxtail [4]; [10]): 35 | Foxtail, Giant plant response rating (giant foxtail [4]; [11]): 100 | Foxtail, Giant plant response rating (giant foxtail [4]; [12]): 100 | Plant response rating, Foxtail, Giant (giant foxtail [4]; [13]): 75 | Johnsongrass plant response rating (johnsongrass [5]; [10]): 10 | Johnsongrass plant response rating (johnsongrass [5]; [11]): 60 | Johnsongrass plant response rating (johnsongrass [5]; [12]): 95 | Plant response rating, Johnsongrass (johnsongrass [5]; [13]): 20 | Ragweed plant response rating (ragweed; [10]): 5 | Ragweed plant response rating (ragweed; [11]): 100 | Ragweed plant response rating (ragweed; [12]): 100 | Plant response rating, Ragweed (ragweed; [13]): 20 | Corn plant response rating (corn; [14]): 5 | Plant response rating (0 to 100), Corn (corn; 125 g ai/ha, postemergence): 10 | Plant response rating, Corn (corn; [15]): 5 | Plant response rating, Corn (corn; [16]): 5 | Crabgrass, Large plant response rating (large (Lg) crabgrass [6]; [14]): 5 | Plant response rating (0 to 100), Crabgrass, Large (large (Lg) crabgrass [6]; 125 g ai/ha, postemergence): 5 | Plant response rating, Crabgrass, Large (large (Lg) crabgrass [6]; [15]): 5 | Plant response rating, Crabgrass, Large (large (Lg) crabgrass [6]; [16]): 5 | Johnsongrass plant response rating (johnsongrass [7]; [14]): 0 | Plant response rating (0 to 100), Johnsongrass (johnsongrass [7]; 125 g ai/ha, postemergence): 5 | Plant response rating, Johnsongrass (johnsongrass [7]; [15]): 5 | Plant response rating, Johnsongrass (johnsongrass [7]; [16]): 5 | Plant response rating (0 to 100), Oilseed Rape (oilseed rape; 125 g ai/ha, postemergence): 45 | Plant response rating, Oilseed Rape (oilseed rape; [15]): 40 | Plant response rating, Oilseed Rape (oilseed rape; [16]): 60 | Plant response rating (0 to 100), Waterhemp (waterhemp; 125 g ai/ha, postemergence): 75 | Plant response rating, Waterhemp (waterhemp; [15]): 70 | Plant response rating, Waterhemp (waterhemp; [16]): 60 | Plant response rating (0 to 100), Velvetleaf (velvetleaf; 125 g ai/ha, postemergence): 65 | Plant response rating, Velvetleaf (velvetleaf; [15]): 25 | Plant response rating, Velvetleaf (velvetleaf; [16]): 65

Fc1cccc(Oc2ncc(Cl)cn2)c1-n1cc(Br)cn1 [Compound 178, 2-[2-(4-bromo-1H-pyrazol-1-yl)-3-fluorophenoxy]-5-chloropyrimidine]
pest or weed control at 125 g/ha (large (Lg) crabgrass [8]; 125 g ai/ha, read-out: Plant response rating, Crabgrass, Large): 100% | pest or weed control at 500 g/ha (large (Lg) crabgrass [8]; 500 g ai/ha, read-out: Crabgrass, Large plant response rating): 100% | Pigweed plant response rating (0 to 100 scale) (pigweed [1]; 125 g ai/ha): 100 | pest or weed control at 500 g/ha (pigweed [1]; Amaranthus retroflexus, pre-emergence, 240 h, 500 g ai/ha, 0 to 100 scale where 0 is no effect and 100 is complete control, read-out: Pigweed plant response rating): 100% | Crabgrass, Large plant response rating (large (Lg) crabgrass [9]; 125 g ai/ha): 90 | pest or weed control at 500 g/ha (large (Lg) crabgrass [9]; Digitaria sanguinalis, post-emergence, 240 h, 500 g ai/ha, read-out: Plant response rating, Crabgrass, Large): 100% | pest or weed control at 125 g/ha (giant foxtail [2]; Setaria faberi, post-emergence, 240 h, 125 g ai/ha, read-out: Foxtail, Giant plant response rating): 90% | pest or weed control at 500 g/ha (giant foxtail [2]; Setaria faberi, post-emergence, 240 h, 500 g ai/ha, read-out: Plant response rating, Foxtail, Giant): 100% | pest or weed control at 500 g/ha (pigweed [3]; Amaranthus retroflexus, post-emergence, 500 g ai/ha, read-out: Plant response rating, Pigweed): 100% | pest or weed control at 125 g/ha (pigweed [3]; Amaranthus retroflexus, post-emergence, 240 h, 125 g ai/ha, read-out: Pigweed plant response rating): 100% | plant injury at 16 g/ha (corn; Zea mays, post-emergence, 16 g ai/ha, postemergence, 0 is no effect, 100 is complete control, read-out: Plant response rating (0 to 100), Corn): 5% | plant injury at 31 g/ha (corn; Zea mays, post-emergence, 31 g ai/ha, postemergence, visual rating, scale 0 to 100 (0 no effect, 100 complete control), 13 to 15 days, read-out: Corn plant response rating): 10% | Corn plant response rating (crop injury, 0 = no effect, 100 = complete kill) at 125 g/ha (corn; Zea mays, post-emergence, 125 g ai/ha, postemergence, visual rating, scale 0 to 100 (0 no effect, 100 complete control)): 10% | Corn plant response rating (crop injury, 0 = no effect, 100 = complete kill) at 62 g/ha (corn; Zea mays, post-emergence, Postemergence, 62 g ai/ha, scale 0 to 100 (0 no effect, 100 complete control)): 10% | pest or weed control at 16 g/ha (large (Lg) crabgrass [6]; Digitaria sanguinalis, post-emergence, 16 g ai/ha, postemergence, 0 is no effect, 100 is complete control, read-out: Plant response rating (0 to 100), Crabgrass, Large): 5% | pest or weed control at 31 g/ha (large (Lg) crabgrass [6]; Digitaria sanguinalis, post-emergence, 31 g ai/ha, postemergence, visual rating, scale 0 to 100 (0 no effect, 100 complete control), 13 to 15 days, read-out: Crabgrass, Large plant response rating): 10% | pest or weed control at 125 g/ha (large (Lg) crabgrass [6]; Digitaria sanguinalis, post-emergence, 125 g ai/ha, postemergence, visual rating, scale 0 to 100 (0 no effect, 100 complete control), read-out: Plant response rating, Crabgrass, Large): 10% | pest or weed control at 62 g/ha (large (Lg) crabgrass [6]; Digitaria sanguinalis, post-emergence, Postemergence, 62 g ai/ha, scale 0 to 100 (0 no effect, 100 complete control), read-out: Plant response rating, Crabgrass, Large): 5% | Johnsongrass plant response rating (johnsongrass [7]; [17]): 5 | pest or weed control at 16 g/ha (johnsongrass [7]; Sorghum halepense, post-emergence, 16 g ai/ha, postemergence, 0 is no effect, 100 is complete control, read-out: Plant response rating (0 to 100), Johnsongrass): 0% | pest or weed control at 125 g/ha (johnsongrass [7]; Sorghum halepense, post-emergence, 125 g ai/ha, postemergence, visual rating, scale 0 to 100 (0 no effect, 100 complete control), read-out: Plant response rating, Johnsongrass): 35% | pest or weed control at 62 g/ha (johnsongrass [7]; Sorghum halepense, post-emergence, Postemergence, 62 g ai/ha, scale 0 to 100 (0 no effect, 100 complete control), read-out: Plant response rating, Johnsongrass): 15% | Oilseed Rape plant response rating (oilseed rape; [17]): 85 | plant injury at 16 g/ha (oilseed rape; Brassica napus, post-emergence, 16 g ai/ha, postemergence, 0 is no effect, 100 is complete control, read-out: Plant response rating (0 to 100), Oilseed Rape): 70% | plant injury at 125 g/ha (oilseed rape; Brassica napus, post-emergence, 125 g ai/ha, postemergence, visual rating, scale 0 to 100 (0 no effect, 100 complete control), read-out: Plant response rating, Oilseed Rape): 98% | plant injury at 62 g/ha (oilseed rape; Brassica napus, post-emergence, Postemergence, 62 g ai/ha, scale 0 to 100 (0 no effect, 100 complete control), read-out: Plant response rating, Oilseed Rape): 90% | Waterhemp plant response rating (waterhemp; [17]): 90 | pest or weed control at 16 g/ha (waterhemp; Amaranthus tuberculatus, post-emergence, 16 g ai/ha, postemergence, 0 is no effect, 100 is complete control, read-out: Plant response rating (0 to 100), Waterhemp): 80% | pest or weed control at 125 g/ha (waterhemp; Amaranthus tuberculatus, post-emergence, 125 g ai/ha, postemergence, visual rating, scale 0 to 100 (0 no effect, 100 complete control), read-out: Plant response rating, Waterhemp): 100% | pest or weed control at 62 g/ha (waterhemp; Amaranthus tuberculatus, post-emergence, Postemergence, 62 g ai/ha, scale 0 to 100 (0 no effect, 100 complete control), read-out: Plant response rating, Waterhemp): 90% | Velvetleaf plant response rating (velvetleaf; [17]): 70 | pest or weed control at 16 g/ha (velvetleaf; Abutilon theophrasti, post-emergence, 16 g ai/ha, postemergence, 0 is no effect, 100 is complete control, read-out: Plant response rating (0 to 100), Velvetleaf): 50% | pest or weed control at 125 g/ha (velvetleaf; Abutilon theophrasti, post-emergence, 125 g ai/ha, postemergence, visual rating, scale 0 to 100 (0 no effect, 100 complete control), read-out: Plant response rating, Velvetleaf): 100% | pest or weed control at 62 g/ha (velvetleaf; Abutilon theophrasti, post-emergence, Postemergence, 62 g ai/ha, scale 0 to 100 (0 no effect, 100 complete control), read-out: Plant response rating, Velvetleaf): 85%
